One compound from patent publication US11357737B2, “Chitosan nanofibers containing bioactive compounds” (FUNDACION COPEC UNIVERSIDAD CATÓLICA, priority 2015, dated 2022) can be followed below.

A short description of one data set: in vitro. To be noted: rat. The text has this: Brains were used from 18-day rat embryos. The extracted hippocampi were placed in modified Hanks saline solution (mHBSS, for its name in English: Hank's buffer salt solution) and washed three times to then add trypsin (0.25%). After this treatment, the hippocampi were washed with mHBSS and transferred to a MEM medium (Minimum Essential Medium) supplemented with 10% horse serum (HS), disintegrating with Pasteur pipette. The cell suspension was collected by low speed centrifugation (2000×g×20 s) at room temperature. The supernatant was saved and the pellet was broken up again with a very fine tip Pasteur pipette. Another centrifugation was performed at low speed (2000×g×20 s) at room temperature. The supernatant containing the cells in suspension was pooled with the above supernatant and the viable cells were counted using Trypan blue (0.2%). Subsequently, the neurons were seeded in culture plates in MEM supplemented with 10% HS. After the hippocampal neurons adhered to the plaque, they were exchanged for medium with a Neurobasal medium with the culture supplement B27, remaining in culture for fourteen days.
Initially, the percentage of cellular viability of said hippocampal neurons exposed to different concentrations of hydrogen peroxide was evaluated. (10, 50, 100, 200, 500 μM) during 1 h. Hydrogen peroxide (H2O2) under biological conditions, it is a highly oxidizing compound.

Data set [1] in a line: Neuroprotection against oxidative damage by H2O2 in hippocampal cultures (neuronal viability). The data set is classed as cell-based. The following applies: rat, primary hippocampal neurons from 18-day rat embryos; 50 μM H2O2 for 1 h, vehicle pre-incubation, 24 h after exposure; read-out: cell viability in the control condition (vehicle) after H2O2. On the procedure: Brains were used from 18-day rat embryos.
The hippocampal neurons of rat obtained in point 2.1 were used to evaluate the neuroprotective effect of the nanofibers of the invention.
The neuroprotective effect of the antioxidant mixture (AOX) was evaluated, for which the neurons obtained in point 2.1 were incubated for 24 hours in a medium supplemented with the mixture of antioxidants obtained in Example 1.1. Neuronal viability was compared to control (incubated with the vehicle without antioxidants) at concentrations of 0.001, 1, 10, 100, 150 and 200 μM of AOX, before and after the exposure of crops to a concentration of 50 μM of H2O2, during 1 h of incubation.
The neuroprotective effect of the nanofibers of the invention (NF) was evaluated, for which the neurons obtained in point 2.1 were incubated for 24 hours in a medium supplemented with the nanofibers of the invention obtained in Example 1.2. The neuronal viability compared to the control (incubated with the vehicle without nanofibers) was compared with nanofibers containing concentrations of 0.001, 1, 10, 100, 150 and 200 μM of AOX, before and after the exposure of crops to a concentration of 50 μM of H2O2, during 1 hour of incubation.

Usually viability stands for a read-out of living cells in per cent, often relative to untreated cells. In the case of `OO` [H2O2, Hydrogen peroxide], in “in vitro”, the viability at 1 h, 10 μM turned out to be 69.5%; the viability at 1 h, 50 μM was determined as 44.3%; the viability at 1 h, 100 μM came to 29.1%; the viability at 1 h, 200 μM is 19.6%. The compound further had a viability at 1 h, 500 μM in the data set “in vitro” of 15.8%. Moreover, in data set [1], the viability at 1 h, 50 μM is below 50%.
